Experimental data from the NIST ThermoML archive (doi:10.1016/j.tca.2006.06.022).
± gives the expanded uncertainty stated by the source.

Key:
[1] = DTA
[2] = Molar enthalpy of transition or fusion; conditions: DSC

Structure (SMILES)	Triple point temperature ([1]; Crystal 1)	Triple point temperature ([1]; Crystal 2)	Triple point temperature ([1]; Crystal 3)	Molar enthalpy of transition or fusion ([2]; Crystal 1)	Molar enthalpy of transition or fusion ([2]; Crystal 2)	Molar enthalpy of transition or fusion ([2]; Crystal 3)	Triple point temperature ([1]; Crystal 4)	Molar enthalpy of transition or fusion ([2]; Crystal 4)
CCCCCCCCCCCCCCCCCCCCCCCCCCCCCCCCCCCCCCCCCC [dotetracontane]	357.3 ± 0.1 K	348.6 ± 0.1 K	344.6 ± 0.1 K	39.7 ± 0.813 kcal/mol	2.02 ± 0.0574 kcal/mol	0.504 ± 0.0287 kcal/mol		
CCCCCCCCCCCCCCCCCCCCCCCCCCCCCCCCCCCC [hexatriacontane]	349.2 ± 0.1 K	347.1 ± 0.1 K	346.8 ± 0.1 K	24.5 ± 0.502 kcal/mol	6.82 ± 0.153 kcal/mol	3.59 ± 0.0884 kcal/mol	343.6 ± 0.1 K	0.112 ± 0.0208 kcal/mol
CCCCCCCCCCCCCCCCCCCCCCCCCCCCCCCCCCCCCCCC [tetracontane]	354.6 ± 0.1 K	347.7 ± 0.1 K	345 ± 0.1 K	34.4 ± 0.717 kcal/mol	2.05 ± 0.0574 kcal/mol	0.601 ± 0.0311 kcal/mol		
CCCCCCCCCCCCCCCCCCCCCCCCCCCCCCCCCC [tetratriacontane]	346.1 ± 0.1 K	343.5 ± 0.1 K	342.8 ± 0.1 K	22.9 ± 0.478 kcal/mol	11.2 ± 0.239 kcal/mol	0.0968 ± 0.0203 kcal/mol		
